Test results from patent US10407445B2, “Hepatitis C virus inhibitors” (ENANTA PHARMACEUTICALS, INC., priority 2013, dated 2019).

Experiments:
[1] = IV and PO single dose pharmacokinetic studies in SD rats; type: in vivo; settings: Sprague-Dawley, rat, plasma, male SD rats, oral gavage 20 mg/kg vs IV bolus 2 mg/kg
Experimental: The pharmacokinetics of selected compounds was characterized in male Sprague-Dawley (SD) rats (250-300 g). […] The intravenous (IV) dosing vehicle was 5% ethanol and 95% of 20% 2-hydroxypropyl β-cyclodextrin in water. The oral dosing vehicle was 33% of Microemulsion Preconcentrate #5 (a lipid based self-emulsifying drug delivery system, SEDDS) and 67% of 50 mM citrate buffer (final pH 3.6).
Serial blood samples (approximately 0.3 mL each) were collected from jugular vein or other suitable vein at specified time points. For the IV dosing group, the blood samples were collected predose and at 0.08, 0.25, 0.50, 1, 3, 6, 8, and 24 hours after the start of dosing. For the oral group, the blood samples were collected predose and at 0.08, 0.25, 0.50, 1, 3, 6, 8, and 24 hours after dosing. The blood samples were collected into VACUTAINER™ tubes containing EDTA-K3 as the anti-coagulant and were centrifuged at approximately 4° C. to obtain plasma. The plasma samples were stored at −20° C. until analysis by LC/MS/MS.
A bioanalytical method utilizing high performance liquid chromatography coupled to tandem mass spectrometry (LC/MS/MS) was developed for analysis of the selected compound in rat plasma. Detection was performed using multiple reaction monitoring (MRM); Ions representing the precursor (M+H)^+ species was selected in quadrupole 1 (Q1) and collided with nitrogen gas in the collision cell (Q2) to generate specific product ion, which was subsequently monitored by quadrupole 3 (Q3). Standard curve and quality control samples were prepared in male rat plasma and processed in the same way as the test samples to generate quantitative data.
Pharmacokinetic parameters were generated using non-compartmental pharmacokinetic analysis (Phoenix WinNonlin, version 6.3). Values below the lower limit of quantification (LLOQ) were assigned a value of zero if predose and treated as missing thereafter. Area under the curve (AUC) was calculated using the linear trapezoidal rule. The oral bioavailability (% F) was determined by comparison of the area under the curve (AUC) of the compound in plasma following oral administration to that generated following intravenous administration.

[2] = tested on: HCV GT 1b replicon; test: HCV replicon assay, stable GT 1b replicon (Renilla luciferase); type: cell-based; settings: Hepatitis C virus, GT1B, 72 h
Experimental: The activity of compounds was determined against HCV replicons representing genotypes (GT) 1a, 1b, 2a, and 3a. To generate stable Huh-7.5-based cell lines, HCV replicons were engineered to express the Renilla luciferase reporter (hRluc) fused to the neomycin phosphotransferase (Neo) gene. GT2a and GT3a HCV replicons were based on the JFH-1 subgenomic replicon (Kato et al. 2003 Gastroenterology, 125:1808-1817), in which the NS5A gene was replaced with that of strains J6 and S52 (GT2a and G3a, respectively). The activity of compounds against GT1a replicons encoding NS5A mutations (M28T, Q30R, L31M, Y93C, and Y93H) was also determined in a transient replication assay. The parental GT1a and GT2a replicons (pH/SG-Neo(L+I) and pSG-Neo-JFH1, respectively) were licensed from Apath LLC (Saint Louis, Mo.). The parental GT 1b replicon (pFKi389lucubineo_3_3′_ET) was licensed from ReBLikon GmbH (Germany). HCV replicons were constructed by standard molecular biology techniques described below. All replicon constructs were verified by restriction enzyme digestion and DNA sequencing.
The hRluc-Neo cassette was PCR amplified from pF9 cytomegalovirus (CMV) hRluc-Neo Flexi(R) (Promega) using Accuprime Super Mix II (Invitrogen) and the following primers, which introduce restriction sites: […]
The amplification product was subcloned into pCR2.1-TOPO (Invitrogen). The resulting plasmid was digested with AscI and NotI, and the excised hRluc-Neo fragment was ligated using the Roche Quick Ligation Kit (Roche) into pFKi389lucubineo_3_3′_ET digested with the same enzymes.
Stable HCV replicon cell lines were grown in complete media (Dulbecco's modified Eagle medium [DMEM], 2 mM L-glutamine, 0.1 mM essential amino acids, 1 mM sodium pyruvate, 10% heat inactivated fetal bovine serum) with the addition 500 μg/ml […] (G418). Huh7-lunet cells were maintained in the same medium without the addition of G418. Cells were routinely passaged at a dilution of 1:4 two times a week. The assay medium for both luciferase reporter HCV replicon and cytotoxicity assays used phenol red-free DMEM and lacked G418. For each stable replicon assay, a sixteen point half-log dilution series of compound was stamped (0.5 ul compound per well) into three replica 384-well plates, to which cells were added directly (4000 cells/well). For the transient replication assay, Huh7-lunet cells in ice-cold phosphate buffered saline (PBS) were electroporated (BioRad electroporator; 950 uF, 270V) with 10 ug purified in vitro transcribed HCV replicon RNA, followed by resuspension in complete media and plating (8000 cells/well) into compound stamped 384-well plates. Luciferase activity of compound-treated cells was measured relative to DMSO-treated cells after 72 h incubation using RENILLA-GLO™ Luciferase Assay (Promega). Cytotoxicity (CC50) in the GT1b replicon cell line was analyzed using CELL TITER-GLO™ (Promega).
The compounds of the present invention can be effective against the HCV 1b genotype. It should also be understood that the compounds of the present invention can inhibit multiple genotypes of HCV. In one embodiment compound of the present invention are active against the 1a, 1b, 2a, 2b, 3a, 4a, and 5a genotypes. In another embodiment compound of the present invention are active against the HCV resistant mutants. […] EC50s are in pM against HCV GT 1a and GT 1b; and nM against GT 2a-J6, GT 3a and GT1a resistant variants (M28T, Q30R, L31V, Y93C and Y93H).

SMILES	bioavailability [1]	EC50 [2]
COC(=O)N[C@H](C(=O)N1C[C@]2(CCCOC2)C[C@H]1c1ncc(-c2ccc(-c3ccc4c(ccc5nc([C@@H]6CC7(CC7)CN6C(=O)[C@@H](NC(=O)OC)C(C)C)[nH]c54)c3)cc2)[nH]1)C(C)C [Compound 28]	7.2%	0.011 nM
COC(=O)N[C@H](C(=O)N1C[C@]2(CCCOC2)C[C@H]1c1nc2ccc3cc(-c4ccc5c(ccc6nc([C@@H]7C[C@@H]8CCCC[C@@H]8N7C(=O)[C@@H](NC(=O)OC)C(C)C)[nH]c65)c4)ccc3c2[nH]1)C(C)C [Compound 23]	5.5%	0.007 nM
COC(=O)N[C@H](C(=O)N1C[C@]2(CCCOC2)C[C@H]1c1nc2ccc3cc(-c4ccc5c(ccc6nc([C@@H]7C[C@H]8C[C@H]8N7C(=O)[C@@H](NC(=O)OC)C(C)C)[nH]c65)c4)ccc3c2[nH]1)C(C)C [Compound 6]	3.5%	0.012 nM
COC(=O)N[C@H](C(=O)N1CC2(CC2)C[C@H]1c1nc2ccc3cc(-c4ccc5c(ccc6nc([C@@H]7C[C@@]8(CCCOC8)CN7C(=O)[C@@H](NC(=O)OC)C(C)C)[nH]c65)c4)ccc3c2[nH]1)C(C)C [Compound 7]	2.5%	0.012 nM
COC(=O)N[C@H](C(=O)N1C[C@]2(CCCOC2)C[C@H]1c1nc2ccc3cc(-c4ccc5c(ccc6nc([C@@H]7C[C@@]8(CCCOC8)CN7C(=O)[C@@H](NC(=O)OC)C(C)C)[nH]c65)c4)ccc3c2[nH]1)C(C)C [Compound 31]	3.8%	0.058 nM
COC(=O)N[C@H](C(=O)N1[C@H](c2nc3ccc4cc(-c5ccc(-c6cnc([C@@H]7C[C@@]8(CCCOC8)CN7C(=O)[C@@H](NC(=O)OC)C7C[C@@H](C)O[C@H](C)C7)[nH]6)cc5)ccc4c3[nH]2)C[C@@H]2CCCC[C@@H]21)C(C)C (stereo in doubt) [Compound 38]	12.4%	0.015 nM
COC(=O)N[C@H](C(=O)N1C[C@]2(CCCOC2)C[C@H]1c1ncc(-c2ccc(-c3ccc(-c4cnc([C@@H]5C[C@@H]6CCC[C@@H]6N5C(=O)[C@@H](NC(=O)OC)C(C)C)[nH]4)cc3)cc2)[nH]1)C(C)C [Compound 37]	114%	0.009 nM
COC(=O)N[C@H](C(=O)N1C[C@]2(CCCOC2)C[C@H]1c1ncc(-c2ccc(-c3ccc4c(ccc5nc([C@@H]6CCCN6C(=O)[C@@H](NC(=O)OC)C(C)C)[nH]c54)c3)cc2)[nH]1)C(C)C [Compound 47]	7%	0.016 nM
COC(=O)N[C@H](C(=O)N1CCC[C@H]1c1ncc(-c2ccc(-c3ccc4c(ccc5nc([C@@H]6C[C@@]7(CCCOC7)CN6C(=O)[C@@H](NC(=O)OC)C(C)C)[nH]c54)c3)cc2)[nH]1)C(C)C [Compound 44]	14.8%	0.016 nM
COC(=O)N[C@H](C(=O)N1C[C@]2(CCCOC2)C[C@H]1c1nc2ccc3cc(-c4ccc(-c5cnc([C@@H]6C[C@@H]7CCCC[C@@H]7N6C(=O)[C@@H](NC(=O)OC)C(C)C)[nH]5)cc4)ccc3c2[nH]1)C(C)C [Compound 24]	7.9%	0.006 nM
COC(=O)N[C@H](C(=O)N1C[C@]2(CCCOC2)C[C@H]1c1nc2ccc3cc(-c4ccc(-c5cnc([C@@H]6C[C@H]7C[C@H]7N6C(=O)[C@@H](NC(=O)OC)C(C)C)[nH]5)cc4)ccc3c2[nH]1)C(C)C [Compound 5]	12.2%	0.011 nM
COC(=O)N[C@H](C(=O)N1CC2(CC2)C[C@H]1c1ncc(-c2ccc(-c3ccc4c(ccc5nc([C@@H]6C[C@@]7(CCCOC7)CN6C(=O)[C@@H](NC(=O)OC)C(C)C)[nH]c54)c3)cc2)[nH]1)C(C)C [Compound 8]	4.1%	0.01 nM
COC(=O)N[C@H](C(=O)N1CCC[C@H]1c1ncc(-c2ccc(-c3ccc4c(ccc5nc([C@@H]6C[C@]7(CCOC7)CN6C(=O)[C@@H](NC(=O)OC)C(C)C)[nH]c54)c3)cc2)[nH]1)C(C)C [Compound 51]	8.6%	0.016 nM
COC(=O)N[C@H](C(=O)N1C[C@]2(CCCOC2)C[C@H]1c1ncc(-c2ccc(-c3ccc4c(ccc5nc([C@@H]6C[C@@H]7COC[C@@H]7N6C(=O)[C@@H](NC(=O)OC)C(C)C)[nH]c54)c3)cc2)[nH]1)C(C)C [Compound 35]	1.1%	0.049 nM
COC(=O)N[C@H](C(=O)N1C[C@]2(CCCOC2)C[C@H]1c1nc2ccc3cc(-c4ccc5c(ccc6nc([C@@H]7C[C@@H]8CCC[C@@H]8N7C(=O)[C@@H](NC(=O)OC)C(C)C)[nH]c65)c4)ccc3c2[nH]1)C(C)C [Compound 9]	2.6%	0.006 nM
COC(=O)N[C@H](C(=O)N1C[C@]2(CCCOC2)C[C@H]1c1nc2ccc3cc(-c4ccc(-c5cnc([C@@H]6C[C@@H]7COC[C@@H]7N6C(=O)[C@@H](NC(=O)OC)C(C)C)[nH]5)cc4)ccc3c2[nH]1)C(C)C [Compound 34]	2.1%	0.041 nM
COC(=O)N[C@H](C(=O)N1C[C@]2(CCCOC2)C[C@H]1c1ncc(-c2ccc(-c3ccc(-c4cnc([C@@H]5C[C@@H]6CCCC[C@@H]6N5C(=O)[C@@H](NC(=O)OC)C(C)C)[nH]4)cc3)cc2)[nH]1)C(C)C [Compound 32]	24.1%	0.006 nM
COC(=O)N[C@H](C(=O)N1C[C@]2(CCCOC2)C[C@H]1c1ncc(-c2ccc(-c3ccc4c(ccc5nc([C@@H]6C[C@@H]7CCCC[C@@H]7N6C(=O)[C@@H](NC(=O)OC)C(C)C)[nH]c54)c3)cc2)[nH]1)C(C)C [Compound 29]	17.1%	0.004 nM
COC(=O)N[C@H](C(=O)N1C[C@]2(CCCOC2)C[C@H]1c1nc2ccc3cc(-c4ccc5c(ccc6nc([C@@H]7C[C@@H]8C[C@@H]8N7C(=O)[C@@H](NC(=O)OC)C(C)C)[nH]c65)c4)ccc3c2[nH]1)C(C)C [Compound 21]	3.4%	0.03 nM
COC(=O)N[C@H](C(=O)N1C[C@]2(CCCOC2)C[C@H]1c1ncc(-c2ccc(-c3ccc4c(ccc5nc([C@@H]6C[C@H]7C[C@H]7N6C(=O)[C@@H](NC(=O)OC)C(C)C)[nH]c54)c3)cc2)[nH]1)C(C)C [Compound 18]	3.3%	0.011 nM
COC(=O)N[C@H](C(=O)N1C[C@]2(CCCOC2)C[C@H]1c1nc2ccc3cc(-c4ccc(-c5cnc([C@@H]6C[C@@H]7C[C@@H]7N6C(=O)[C@@H](NC(=O)OC)C(C)C)[nH]5)cc4)ccc3c2[nH]1)C(C)C [Compound 22]	9.4%	0.008 nM
